{"source": "the supplement of paper PMC10290057", "key": {"HCT116 [1]": {"test_system": "HCT116", "experiment": "AC50 cell viability (CellTiter-Glo); higher = less potent", "conditions": "48 h"}, "HCT116 [2]": {"test_system": "HCT116", "experiment": "efficacy (fitted maximal change in viability relative to DMSO control); higher = less cytotoxic (negative = loss of viability)", "conditions": "48 h"}}, "note": "Where a name gives a salt, the structure may show the parent alone.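 Throughout, for AC50 cell viability (CellTiter-Glo): HCT116 colorectal carcinoma cells screened at five concentrations per compound, luminescent viability scaled between DMSO wells and empty wells on each plate, curves fitted per compound.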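 Throughout, for efficacy (fitted maximal change in viability relative to DMSO control): Luminescence-based viability readout, five doses per compound, normalized against on-plate DMSO and empty-well controls, followed by dose-response curve fitting for every drug.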"}
{"smiles": "CN(C)CCCOc1ccc(-c2ccc3ncc4c(c3c2)n(C2CCOCC2)c(=O)n4C)cn1", "note": "[AZD-0156]", "values": [{"measurement": "AC50 cell viability", "setting": "HCT116 [1]", "result": 7.23, "unit": "µM"}, {"measurement": "efficacy", "setting": "HCT116 [2]", "result": -86, "unit": "%"}]}
{"smiles": "Cn1ncc(Cl)c1-c1cc(C(=O)N[C@H](CN)Cc2ccc(F)c(F)c2)sc1Cl", "values": [{"measurement": "AC50 cell viability", "setting": "HCT116 [1]", "result": 16.6, "unit": "µM"}, {"measurement": "efficacy", "setting": "HCT116 [2]", "result": -116, "unit": "%"}]}
{"smiles": "CN(C)CCN(C)C(=O)c1ccc(NC(=O)Nc2ccc(-c3nc(N4CCOCC4)c4ccn(CC(F)(F)F)c4n3)cc2)cc1", "values": [{"measurement": "AC50 cell viability", "setting": "HCT116 [1]", "result": 0.263, "unit": "µM"}, {"measurement": "efficacy", "setting": "HCT116 [2]", "result": -118, "unit": "%"}]}
{"smiles": "CS[C@H]1SC[C@@H]2C(=O)N(C)[C@H](C(C)C)C(=O)OC[C@H](NC(=O)c3cnc4ccccc4n3)C(=O)N[C@H](C)C(=O)N(C)[C@H]1C(=O)N(C)[C@H](C(C)C)C(=O)OC[C@H](NC(=O)c1cnc3ccccc3n1)C(=O)N[C@H](C)C(=O)N2C", "note": "[Echinomycin]", "values": [{"measurement": "AC50 cell viability", "setting": "HCT116 [1]", "result": 0.00372, "unit": "µM"}, {"measurement": "efficacy", "setting": "HCT116 [2]", "result": -72.6, "unit": "%"}]}
{"smiles": "CN(C)C/C=C/C(=O)Nc1cc2c(Nc3ccc(F)c(Cl)c3)ncnc2cc1O[C@H]1CCOC1", "note": "[Afatinib]", "values": [{"measurement": "AC50 cell viability", "setting": "HCT116 [1]", "result": 4.68, "unit": "µM"}, {"measurement": "efficacy", "setting": "HCT116 [2]", "result": -100, "unit": "%"}]}
{"smiles": "C=CC(=O)Nc1cccc(Oc2nc(Nc3ccc(N4CCN(C)CC4)c(F)c3)nc3[nH]ccc23)c1", "note": "[Avitinib]", "values": [{"measurement": "AC50 cell viability", "setting": "HCT116 [1]", "result": 13.2, "unit": "µM"}, {"measurement": "efficacy", "setting": "HCT116 [2]", "result": -123, "unit": "%"}]}
{"smiles": "C[C@@H](Nc1ncnc2[nH]c(-c3ccc(O)cc3)cc12)c1ccccc1", "note": "[PKI-166]", "values": [{"measurement": "AC50 cell viability", "setting": "HCT116 [1]", "result": 14.8, "unit": "µM"}, {"measurement": "efficacy", "setting": "HCT116 [2]", "result": -84.7, "unit": "%"}]}
{"smiles": "C[N]1C=C(C=N1)C2=CC=C3N=CC\\4=C(N(C(=O)\\C=C4)C5=CC6=C(CCN6C(=O)C=C)C=C5)C3=C2", "values": [{"measurement": "AC50 cell viability", "setting": "HCT116 [1]", "result": 0.512, "unit": "µM"}, {"measurement": "efficacy", "setting": "HCT116 [2]", "result": -78.5, "unit": "%"}]}
{"smiles": "Nc1nccn2c1c(-c1cc3cccc(Cl)c3[nH]1)nc2[C@H]1CC[C@H](C(=O)O)CC1", "note": "[OXA-01]", "values": [{"measurement": "AC50 cell viability", "setting": "HCT116 [1]", "result": 9.34, "unit": "µM"}, {"measurement": "efficacy", "setting": "HCT116 [2]", "result": -65.8, "unit": "%"}]}
{"smiles": "COc1ccc(-c2cc3nccn3c(Nc3ncccc3C(N)=O)n2)cc1OC", "note": "[BAY61-3606]", "values": [{"measurement": "AC50 cell viability", "setting": "HCT116 [1]", "result": 4.17, "unit": "µM"}, {"measurement": "efficacy", "setting": "HCT116 [2]", "result": -66.9, "unit": "%"}]}
{"smiles": "CNCCn1c(=O)c2cc(OC)c(OC)cc2c2cnc3cc4c(cc3c21)OCO4", "values": [{"measurement": "AC50 cell viability", "setting": "HCT116 [1]", "result": 0.0303, "unit": "µM"}, {"measurement": "efficacy", "setting": "HCT116 [2]", "result": -80.9, "unit": "%"}]}
{"smiles": "Cn1cc(CNCC2CCN(c3ncc(C(=O)NO)cn3)CC2)c2ccccc21", "note": "[Quisinostat]", "values": [{"measurement": "AC50 cell viability", "setting": "HCT116 [1]", "result": 0.0742, "unit": "µM"}, {"measurement": "efficacy", "setting": "HCT116 [2]", "result": -81.9, "unit": "%"}]}
{"smiles": "Cc1cccc(CC(=O)N2CCc3c2ccc(-c2cn(C)c4ncnc(N)c24)c3F)n1", "values": [{"measurement": "AC50 cell viability", "setting": "HCT116 [1]", "result": 0.661, "unit": "µM"}, {"measurement": "efficacy", "setting": "HCT116 [2]", "result": -43.2, "unit": "%"}]}
{"smiles": "Cc1[nH]c(/C=C2\\C(=O)Nc3ccc(F)cc32)c(C)c1C(=O)NCCN1CCCC1", "note": "[Toceranib]", "values": [{"measurement": "AC50 cell viability", "setting": "HCT116 [1]", "result": 8.11, "unit": "µM"}, {"measurement": "efficacy", "setting": "HCT116 [2]", "result": -95.7, "unit": "%"}]}
{"smiles": "CC(C)c1ccc(Cn2ccc3c4c(N)nc(NC5CC5)nc4ccc32)cc1", "values": [{"measurement": "AC50 cell viability", "setting": "HCT116 [1]", "result": 0.332, "unit": "µM"}, {"measurement": "efficacy", "setting": "HCT116 [2]", "result": -102, "unit": "%"}]}
{"smiles": "Cc1cc(Nc2cc(N3CCN(C)CC3)nc(Sc3ccc(NC(=O)C4CC4)cc3)n2)[nH]n1", "note": "[Tozasertib]", "values": [{"measurement": "AC50 cell viability", "setting": "HCT116 [1]", "result": 7.42, "unit": "µM"}, {"measurement": "efficacy", "setting": "HCT116 [2]", "result": -95.2, "unit": "%"}]}
{"smiles": "COc1cc2ncnc(Nc3ccc(O)c(Br)c3)c2cc1OC", "note": "[WHI-P154]", "values": [{"measurement": "AC50 cell viability", "setting": "HCT116 [1]", "result": 14.8, "unit": "µM"}, {"measurement": "efficacy", "setting": "HCT116 [2]", "result": -72.5, "unit": "%"}]}
{"smiles": "NCC(=O)Nc1ccc(-n2nc(C(F)(F)F)cc2-c2ccc3c(ccc4ccccc43)c2)cc1", "values": [{"measurement": "AC50 cell viability", "setting": "HCT116 [1]", "result": 13.2, "unit": "µM"}, {"measurement": "efficacy", "setting": "HCT116 [2]", "result": -124, "unit": "%"}]}
{"smiles": "COCCNCCc1cccc(Nc2ncc3c(n2)-c2ccccc2[C@H](c2ccccc2F)C3)c1", "note": "[Derazantinib]", "values": [{"measurement": "AC50 cell viability", "setting": "HCT116 [1]", "result": 10.5, "unit": "µM"}, {"measurement": "efficacy", "setting": "HCT116 [2]", "result": -95.8, "unit": "%"}]}
{"smiles": "CO[C@@H](C(=O)N1Cc2[nH]nc(NC(=O)c3ccc(N4CCN(C)CC4)cc3)c2C1)c1ccccc1", "note": "[Danusertib]", "values": [{"measurement": "AC50 cell viability", "setting": "HCT116 [1]", "result": 1.66, "unit": "µM"}, {"measurement": "efficacy", "setting": "HCT116 [2]", "result": -71.4, "unit": "%"}]}
{"smiles": "COc1cc(OC)cc(N2CCN(C(=O)Nc3nc4cc(F)ccc4nc3OC)CC2)c1", "note": "[RX-5902 (SUPINOXIN)]", "values": [{"measurement": "AC50 cell viability", "setting": "HCT116 [1]", "result": 2.63, "unit": "µM"}, {"measurement": "efficacy", "setting": "HCT116 [2]", "result": -60, "unit": "%"}]}
{"smiles": "CNC(=O)Cn1cc(-c2ccc3c(c2)C(F)CC32NC(=O)N(CC(=O)N(Cc3ccc(F)cc3)[C@@H](C)C(F)(F)F)C2=O)cn1", "note": "(stereo partly drawn)", "values": [{"measurement": "AC50 cell viability", "setting": "HCT116 [1]", "result": 0.742, "unit": "µM"}, {"measurement": "efficacy", "setting": "HCT116 [2]", "result": -47.8, "unit": "%"}]}
{"smiles": "O=C(NO)C1(C[S+](=O)([O-])c2ccc(Oc3ccc(Cl)cc3)cc2)CCOCC1", "note": "[CTS-1027]", "values": [{"measurement": "AC50 cell viability", "setting": "HCT116 [1]", "result": 20.9, "unit": "µM"}, {"measurement": "efficacy", "setting": "HCT116 [2]", "result": -61.5, "unit": "%"}]}
{"smiles": "C=CC(=O)N1CCC[C@@H](n2nc(-c3ccc(Oc4ccccc4)cc3)c3c(N)ncnc32)C1", "values": [{"measurement": "AC50 cell viability", "setting": "HCT116 [1]", "result": 16.6, "unit": "µM"}, {"measurement": "efficacy", "setting": "HCT116 [2]", "result": -90.8, "unit": "%"}]}
{"smiles": "Cc1c(CN2CCC(Nc3ncnc4sc(CC(F)(F)F)cc34)CC2)ccc2c1cc(C#N)n2Cc1cn[nH]c1", "note": "[MI-503]", "values": [{"measurement": "AC50 cell viability", "setting": "HCT116 [1]", "result": 3.72, "unit": "µM"}, {"measurement": "efficacy", "setting": "HCT116 [2]", "result": -76, "unit": "%"}]}
{"smiles": "COc1cc(C(=O)NC2CCN(C)CC2)c(F)cc1Nc1ncc2c(n1)N(C1CCCC1)CC(F)(F)C(=O)N2C", "note": "[TAK-960]", "values": [{"measurement": "AC50 cell viability", "setting": "HCT116 [1]", "result": 1.32, "unit": "µM"}, {"measurement": "efficacy", "setting": "HCT116 [2]", "result": -120, "unit": "%"}]}
{"smiles": "OC1CCC(CC1)N2\\C=N/C3=C(C2=N)C(=C([N]3CC4=CC=CC=C4)C5=CC=CC=C5)C6=CC=CC=C6", "note": "(stereo not drawn)", "values": [{"measurement": "AC50 cell viability", "setting": "HCT116 [1]", "result": 2.95, "unit": "µM"}, {"measurement": "efficacy", "setting": "HCT116 [2]", "result": -107, "unit": "%"}]}
{"smiles": "CCCCc1oc2ccccc2c1C(=O)c1cc(I)c(OCCN(CC)CC)c(I)c1", "note": "[Amiodarone hydrochloride]", "values": [{"measurement": "AC50 cell viability", "setting": "HCT116 [1]", "result": 23.5, "unit": "µM"}, {"measurement": "efficacy", "setting": "HCT116 [2]", "result": -71.8, "unit": "%"}]}
{"smiles": "COC\\1=C(/OC)C(=O)\\C(=C(C)/C1=O)CCCCCCCCCCO", "note": "[Idebenone]", "values": [{"measurement": "AC50 cell viability", "setting": "HCT116 [1]", "result": 18.6, "unit": "µM"}, {"measurement": "efficacy", "setting": "HCT116 [2]", "result": -54.9, "unit": "%"}]}
